Results from patent US20240252463A1, “METHODS OF TREATING FIBROTIC PATHOLOGIES” (Mayo Foundation for Medical Education and Research, priority 2018, published 2024).
Read-outs that look alike come from different tables or passages of the source.

Tests used:
[1] = test system: YAP/TAZ target genes; experiment: YAP/TAZ target gene expression in flow-sorted lung cells of bleomycin-injured mice; type: in vivo, mouse; conditions: bleomycin day 10, two doses of DHX (2 and 24 hours prior to collecting lungs)
Protocol: 29A. Two groups of mice were injured intratracheally with bleomycin at day 0, on day 10 one group received two doses of DHX (2 and 24 hours prior to collecting lungs) and the other received vehicle control. On day 11 lungs were collected to flow sort fibroblasts, epithelial, and endothelial cells. 29B. Changes in RNA expression of YAP/TAZ target genes from freshly isolated cells.
Cell Sorting: FACS: PBS perfused mouse lungs were finely minced with a razor blade in a 100 mm petri dish in 1 mL of cold DMEM medium containing 0.2 mg ml^−1 Liberase DL (Roche) and 100 U ml^−1 DNase I (Roche). The mixture was transferred to 15 ml tubes and incubated at 37° C. for 30 min in a water bath. Enzymatic digestion was inactivated by adding DMEM medium containing 10% fetal bovine serum. The cell suspension was passed once through a 40 µm cell strainer (Fisher) to remove multicellular debris. Cells were then centrifuged at 1,300 r.p.m. at 4° C. for 10 min, washed once in PBS and resuspended in 0.2 ml of FACS buffer (1% BSA, 0.5 μM EDTA pH 7.4 in PBS). The single cell suspension was then incubated with anti-CD45-PerCp-Cy5.5, anti-CD31-PE, anti-PDGFRα-APC and anti-EpCAM-BV421 antibodies (1:200) (Biolegend) for 20 min on ice. After incubation, cells were washed with ice-cold FACS buffer and resuspended in 1 ml of FACS buffer. FACS sorting was conducted using a BD FACS Aria II (BD Biosciences). […]

[2] = test system: Collagen I and Fibronectin; experiment: Immuno-ECM: TGFβ-stimulated accumulation of collagen I and fibronectin; type: cell-based, human; conditions: IPF patient-derived fibroblasts, TGFβ 48 hours then DHX 24 hours
Protocol: Immuno-ECM: Adapting from previously published methods, IPF patient-derived fibroblasts were plated to confluence in clear-bottom 96-well plates. After cells attached, the medium was swapped for EMEM containing 0.1% FBS+2 ng/mL TGF-β. After 48 hours the indicated concentration of DHX or DMSO control was added to each well and incubated for 24 hours. WST-1 viability reagent was added to each well (Sigma-Aldrich) and measured on a Flexstation 3 (Molecular Devices) plate reader. Cells were then fixed in 3.7% formalin (Sigma-Aldrich), and permeabilized in 0.25% Triton X-100 (Sigma-Aldrich). Wells were washed with tris-buffered saline (TBS) and blocked with Li-Cor Odyssey Blocking Buffer for 60 minutes before overnight incubation in a polyclonal rabbit antibody for fibronectin (Sigma sc-9068) or collagen I (Novus NB600-408) diluted 1:200 in blocking buffer. Wells were washed with TBS-Tween before 45 minute incubation with IR-dye-conjugated secondary antibody (Li-Cor #926-32211) diluted 1:400. Plates were imaged via a Li-Cor OdysseyXL system with quantification performed via densitometry. Data are expressed as IR intensity relative to WST-1 signal absorbance in order to account for any potential compound toxicity.

[3] = test system: αSMA+ stress fibers; experiment: TGFβ-induced αSMA+ stress fiber formation; type: cell-based, human; conditions: IMR-90, TGFβ 72 hours, DHX 10 μM from 48-72 hours
Protocol: ImmunofluorescenceMicroscopy: Cells were plated into 96 well plates (Corning 3603) in their specific growth media and allowed to attach (8 hours). Media was then exchanged for the indicated conditions for each experiment. Cells were fixed in 3.7% formalin (Sigma-Aldrich), permeabilized in 0.25% Triton X-100 (Sigma-Aldrich) and then blocked with 1% BSA for 1 h. Cells or tissue sections were incubated overnight with mouse monoclonal antibody against αSMA (Sigma-Aldrich F3777), and/or a rabbit monoclonal antibody against YAP/TAZ (Cell Signaling D24E4) diluted 1:200 in PBS with 1% BSA.

[4] = test system: αSMA; experiment: αSMA intensity (fibroblast activation) in IPF patient-derived lung fibroblasts + TGFβ; type: cell-based, human; conditions: Homo sapiens, SMA, 1 μM + TGFβ, treated for 72 hours

Oc1cc2c(cc1O)[C@H]1c3ccccc3CN[C@@H]1CC2 (racemic) [Dihydrexidine, dihydrexidine]
expression of YAP/TAZ target genes in freshly isolated lung fibroblasts, epithelial and endothelial cells [1]: selectively blocks expression of YAP/TAZ target genes in lung fibroblasts in vivo
TGFβ-stimulated accumulation of collagen I and fibronectin [2]: dose-dependently reversed
myofibroblastic transition (αSMA+ stress fibers) [3]: reversed this transition
activity at 1 µM ([4]; patient sample IPF-1, read-out: αSMA intensity (% of DMSO control) IPF-1): 4.98%
activity at 1 µM ([4]; patient sample IPF-2, read-out: αSMA intensity (% of DMSO control) IPF-2): 0.0469%
activity at 1 µM ([4]; patient sample IPF-3, read-out: αSMA intensity (% of DMSO control) IPF-3): 0.513%
activity at 1 µM ([4]; patient sample IPF-4, read-out: αSMA intensity (% of DMSO control) IPF-4): 12%
